Reference: ChEMBL document CHEMBL4765290, “Design, synthesis and biological evaluation of novel dual-acting modulators targeting both estrogen receptor α (ERα) and lysine-specific demethylase 1 (LSD1) for treatment of breast cancer” (Eur J Med Chem, 2020)

Tests used:
MCF7 [1] = assay: cells; settings: Homo sapiens, MCF7, 72 h
Description: Antiproliferative activity against human MCF7 cells assessed as reduction in cell viability after 72 hrs by MTT assay

[2] = molecular target: Lysine-specific histone demethylase 1A (Homo sapiens, UniProt O60341)
Description: Inhibition of LSD1 (unknown origin) incubated for 90 mins by fluorescence based assay

MCF7 [3] = assay: Induction of apoptosis in human MCF7 cells assessed as viable cells at 30 uM incubated for 24 hrs by AnnexinV-FITC and propidium iodide staining based flow cytometry analysis (reference value: 87.12 %); assay type: functional; settings: read-out: Activity
MCF7 [4] = assay: Induction of apoptosis in human MCF7 cells assessed as early apoptotic cells at 10 uM incubated for 24 hrs by AnnexinV-FITC and propidium iodide staining based flow cytometry analysis (reference value: 3.08 %); assay type: functional
MCF7 [5] = assay: Induction of apoptosis in human MCF7 cells assessed as viable cells at 5 uM incubated for 24 hrs by AnnexinV-FITC and propidium iodide staining based flow cytometry analysis (reference value: 87.12 %); assay type: functional; settings: read-out: Activity
MCF7 [6] = assay: Induction of apoptosis in human MCF7 cells assessed as necrotic cells at 5 uM incubated for 24 hrs by AnnexinV-FITC and propidium iodide staining based flow cytometry analysis (reference value: 2.35 %); assay type: functional
MCF7 [7] = assay: Induction of apoptosis in human MCF7 cells assessed as early apoptotic cells at 30 uM incubated for 24 hrs by AnnexinV-FITC and propidium iodide staining based flow cytometry analysis (reference value: 3.08 %); assay type: functional
MCF7 [8] = assay: Induction of apoptosis in human MCF7 cells assessed as late apoptotic cells at 10 uM incubated for 24 hrs by AnnexinV-FITC and propidium iodide staining based flow cytometry analysis (reference value: 7.15 %); assay type: functional
MCF7 [9] = assay: Induction of apoptosis in human MCF7 cells assessed as necrotic cells at 30 uM incubated for 24 hrs by AnnexinV-FITC and propidium iodide staining based flow cytometry analysis (reference value: 2.35 %); assay type: functional
MCF7 [10] = assay: Induction of apoptosis in human MCF7 cells assessed as necrotic cells at 10 uM incubated for 24 hrs by AnnexinV-FITC and propidium iodide staining based flow cytometry analysis (reference value: 2.35 %); assay type: functional
MCF7 [11] = assay: Induction of apoptosis in human MCF7 cells assessed as late apoptotic cells at 5 uM incubated for 24 hrs by AnnexinV-FITC and propidium iodide staining based flow cytometry analysis (reference value: 7.15 %); assay type: functional
MCF7 [12] = assay: Induction of apoptosis in human MCF7 cells assessed as late apoptotic cells at 30 uM incubated for 24 hrs by AnnexinV-FITC and propidium iodide staining based flow cytometry analysis (reference value: 7.15 %); assay type: functional
MCF7 [13] = assay: Induction of apoptosis in human MCF7 cells assessed as early apoptotic cells at 5 uM incubated for 24 hrs by AnnexinV-FITC and propidium iodide staining based flow cytometry analysis (reference value: 3.08 %); assay type: functional
MCF7 [14] = assay: Induction of apoptosis in human MCF7 cells assessed as viable cells at 10 uM incubated for 24 hrs by AnnexinV-FITC and propidium iodide staining based flow cytometry analysis (reference value: 87.12 %); assay type: functional; settings: read-out: Activity

| Compound | IC50 (MCF7 [1]) [µM] | IC50 [2] [µM] | further results |
| --- | --- | --- | --- |
| O=S(=O)(Oc1cncc(Br)c1)C1CC2OC1C(c1ccc(O)cc1)=C2c1ccc(O)cc1 (stereo unspecified) | 16.4 | > 50 | – |
| O=S(=O)(Oc1cncc(F)c1)C1CC2OC1C(c1ccc(O)cc1)=C2c1ccc(O)cc1 (stereo unspecified) | 13.8 | 18.3 | – |
| O=S(=O)(Oc1cccc(Cl)n1)C1CC2OC1C(c1ccc(O)cc1)=C2c1ccc(O)cc1 (stereo unspecified) | 10.2 | 4.08 | – |
| CCOC(=O)c1ccc(NS(=O)(=O)C2CC3OC2C(c2ccc(O)cc2)=C3c2ccc(O)cc2)cc1 (stereo unspecified) | 18.8 | > 50 | – |
| O=S(=O)(Oc1cccnc1Cl)C1CC2OC1C(c1ccc(O)cc1)=C2c1ccc(O)cc1 (stereo unspecified) | 30.2 | 7.13 | – |
| Cc1cccc(NC(=O)C2CC3OC2C(c2ccc(O)cc2)=C3c2ccc(O)cc2)n1 (stereo unspecified) | 26.2 | > 50 | – |
| O=C(Oc1cccnc1Br)C1CC2OC1C(c1ccc(O)cc1)=C2c1ccc(O)cc1 (stereo unspecified) | 84 | > 50 | – |
| COC(=O)c1ccccc1NS(=O)(=O)C1CC2OC1C(c1ccc(O)cc1)=C2c1ccc(O)cc1 (stereo unspecified) | 30.5 | 30 | – |
| COC(=O)c1ccc(NS(=O)(=O)C2CC3OC2C(c2ccc(O)cc2)=C3c2ccc(O)cc2)cc1 (stereo unspecified) | 15.1 | 13.2 | – |
| O=C(NC1CC1)C1CC2OC1C(c1ccc(O)cc1)=C2c1ccc(O)cc1 (stereo unspecified) | > 100 | > 50 | – |
| O=S(=O)(Oc1cccc(Br)n1)C1CC2OC1C(c1ccc(O)cc1)=C2c1ccc(O)cc1 (stereo unspecified) | 7.9 | 5.92 | – |
| O=S(=O)(Oc1cccc2cccnc12)C1CC2OC1C(c1ccc(O)cc1)=C2c1ccc(O)cc1 (stereo unspecified) | 16.7 | > 50 | – |
| O=C(Oc1cccnc1Cl)C1CC2OC1C(c1ccc(O)cc1)=C2c1ccc(O)cc1 (stereo unspecified) | 38.2 | 17.4 | – |
| O=S(=O)(Oc1cncc(Cl)c1)C1CC2OC1C(c1ccc(O)cc1)=C2c1ccc(O)cc1 (stereo unspecified) | 49.4 | > 50 | – |
| Cc1cccc(NC(=O)C2CC3OC2C(c2ccc(O)cc2)=C3c2ccc(O)cc2)c1 (stereo unspecified) | 44.5 | > 50 | – |
| O=S(=O)(Oc1ccc2ccccc2c1)C1CC2OC1C(c1ccc(O)cc1)=C2c1ccc(O)cc1 (stereo unspecified) | 4.11 | 15.1 | – |
| Cc1cc(=O)oc2cc(OS(=O)(=O)C3CC4OC3C(c3ccc(O)cc3)=C4c3ccc(O)cc3)ccc12 (stereo unspecified) | 38.3 | 13.7 | – |
| O=S(=O)(Oc1ccc(-c2ccccc2)cc1)C1CC2OC1C(c1ccc(O)cc1)=C2c1ccc(O)cc1 (stereo unspecified) | 4.1 | > 50 | – |
| O=S(=O)(Oc1cccnc1Br)C1CC2OC1C(c1ccc(O)cc1)=C2c1ccc(O)cc1 (stereo unspecified) | 7.84 | 12.3 | – |
| O=C(NCc1ccc2c(c1)OCO2)C1CC2OC1C(c1ccc(O)cc1)=C2c1ccc(O)cc1 (stereo unspecified) | 35.2 | > 50 | – |
| O=S(=O)(Oc1cccc(F)n1)C1CC2OC1C(c1ccc(O)cc1)=C2c1ccc(O)cc1 (stereo unspecified) | 8.79 | 1.55 | viability at 30 µM (MCF7 [3]): 56.9%; Activity (MCF7 [4]): 7.1%; viability at 5 µM (MCF7 [5]): 84.7%; Activity (MCF7 [6]): 2.08%; Activity (MCF7 [7]): 13.74%; Activity (MCF7 [8]): 11.03%; Activity (MCF7 [9]): 5.79%; Activity (MCF7 [10]): 2.21%; Activity (MCF7 [11]): 8.57%; Activity (MCF7 [12]): 23.57%; Activity (MCF7 [13]): 4.62%; viability at 10 µM (MCF7 [14]): 79.7% |
| O=S(=O)(Oc1cccc2ccccc12)C1CC2OC1C(c1ccc(O)cc1)=C2c1ccc(O)cc1 (stereo unspecified) | 37.7 | > 50 | – |
| O=c1cc(C(F)(F)F)c2ccc(OS(=O)(=O)C3CC4OC3C(c3ccc(O)cc3)=C4c3ccc(O)cc3)cc2o1 (stereo unspecified) | 12.5 | > 50 | – |
| O=S(=O)(Oc1ccccc1)C1CC2OC1C(c1ccc(O)cc1)=C2c1ccc(O)cc1 (stereo unspecified) | 28.7 | > 50 | – |
| CC/C(=C(\c1ccc(O)cc1)c1ccc(OCCN(C)C)cc1)c1ccccc1 [AFIMOXIFENE] | – | > 50 | – |
